Some results are limits rather than exact numbers.

One series deals with U2OS. Kind of series: Cytotoxicity against human U2OS cells assessed as reduction in cell viability incubated for 72 hrs by MTS assay. It is filed as functional, cell-based. Background: Formazan colour is commonly taken as a measure of viable cells.
A short description of series [1]: Cytotoxicity against human K562-Tax cells assessed as reduction in cell viability incubated for 72 hrs by MTS assay. It is filed as functional, cell-based.
The subject of a further series is CCRF-CEM. In words: Cytotoxicity against human CCRF-CEM cells assessed as reduction in cell viability incubated for 72 hrs by MTS assay. It is filed as functional, cell-based.
For another series, the system named is HCT-116. In words: Cytotoxicity against human HCT-116 cells assessed as reduction in cell viability incubated for 72 hrs by MTS assay. The settings on record: HCT-116, 72 h. It is filed as functional, cell-based.
The nature of series [2]: Cytotoxicity against human MRC5 cells assessed as reduction in cell viability incubated for 72 hrs by MTS assay. It is filed as toxicity, cell-based.
For another series, the system named is A549. Kind of series: Cytotoxicity against human A549 cells assessed as reduction in cell viability incubated for 72 hrs by MTS assay. It is filed as functional, cell-based. To be noted: A549, 72 h.
The next series concerns CEM-DNR. In words: Cytotoxicity against human CEM-DNR cells assessed as reduction in cell viability incubated for 72 hrs by MTS assay. It is filed as functional, cell-based.
The next series has as its system K562. In words: Cytotoxicity against human K562 cells assessed as reduction in cell viability incubated for 72 hrs by MTS assay. It is filed as functional, cell-based. The settings on record: K562, 72 h.
The subject of a further series is HCT 116 TP53(-/-). Kind of series: Cytotoxicity against human HCT116-p53-null cells assessed as reduction in cell viability incubated for 72 hrs by MTS assay. It is filed as functional, cell-based.
Series [3] in a line: Cytotoxicity against human BJ cells assessed as reduction in cell viability incubated for 72 hrs by MTS assay. It is filed as toxicity, cell-based.

Consider `CC(C)[C@@H]1CC[C@]2(C(=O)O)CC[C@]3(C)[C@H](CC[C@@H]4[C@@]5(C)Cc6c(C(F)(F)F)cc7c(c6C(C)(C)[C@@H]5CC[C@]43C)C(=O)N(c3ccccc3)C7=O)[C@@H]12`, for which the IC50 (with U2OS; in [1]; in the series on CCRF-CEM; with HCT-116; with A549; in the series with CEM-DNR) was above 50 µM in each case. The IC50 with K562 and with HCT 116 TP53(-/-) was above 50 µM in each case. The IC50 at 72 h in [2] and in series [3] was above 50 µM throughout.

In the case of `C[C@H]1[C@H](C)CC[C@]2(C(=O)O)CC[C@]3(C)C(=CC[C@@H]4[C@@]5(C)Cc6c(C(F)(F)F)cc(=O)oc6C(C)(C)[C@@H]5CC[C@]43C)[C@H]12`, the IC50 in the series with U2OS worked out at 23 µM; in series [1], 21 µM; in the series with CCRF-CEM it was 6.3 µM; in the series on HCT-116, 25 µM; in the series with A549, 17 µM; with CEM-DNR it was 19.5 µM. Moreover, the values for the half-maximal inhibitory concentration (IC50) in the series on K562 and in the series with HCT 116 TP53(-/-) were 23 µM and 27 µM, respectively. The IC50 at 72 h in series [2] and in series [3] was above 50 µM in each case.

Consider `C[C@H]1[C@H](C)CC[C@]2(C(=O)O)CC[C@]3(C)C(=CC[C@@H]4[C@@]5(C)Cc6c(C(F)(F)F)cc7c(c6C(C)(C)[C@@H]5CC[C@]43C)C(=O)N(c3ccccc3)C7=O)[C@H]12`, for which the IC50 (in the series with U2OS; in series [1]; in the series with CCRF-CEM; in the series with HCT-116; in the series on A549; with CEM-DNR) was above 50 µM throughout. In addition, the IC50 with K562 and in the series on HCT 116 TP53(-/-) was above 50 µM throughout. Further, the IC50 at 72 h in series [2] and in series [3] was above 50 µM throughout.

On to `COC(=O)c1cc(C(F)(F)F)c2c(c1C(=O)OC)C(C)(C)[C@@H]1CC[C@]3(C)[C@H](CC[C@@H]4[C@H]5[C@H](C(C)C)CC[C@]5(C(=O)O)CC[C@]43C)[C@@]1(C)C2`, for which the IC50 with U2OS is 11 µM; in series [1], above 50 µM; in the series with CCRF-CEM, 5.3 µM; in the series with HCT-116, above 50 µM; in the series with A549, above 50 µM; with CEM-DNR it was above 50 µM. For the same molecule, the IC50 with K562 and with HCT 116 TP53(-/-) was above 50 µM each time. Also, the IC50 at 72 h in series [2] and in series [3] was above 50 µM each time.

`C=C(C)[C@@H]1CC[C@]2(C(=O)O)CC[C@]3(C)[C@H](CC[C@@H]4[C@@]5(C)CC(C(=O)C(F)(F)F)C(=O)C(C)(C)[C@@H]5CC[C@]43C)[C@@H]12` (some centres undefined): the IC50 with U2OS worked out at 30 µM; in the series with CCRF-CEM, 7.3 µM; in the series with HCT-116, 24 µM; in the series on A549, 12 µM; in the series with K562, 13 µM; in the series with HCT 116 TP53(-/-), 30 µM. Besides, the IC50 at 72 h in series [2] and in series [3] was above 50 µM each time.

`COC(=O)c1cc(C(F)(F)F)c2c(c1C(=O)OC)C(C)(C)[C@@H]1CC[C@]3(C)[C@H](CC=C4[C@@H]5[C@@H](C)[C@H](C)CC[C@]5(C(=O)O)CC[C@]43C)[C@@]1(C)C2`: the IC50 with U2OS is 24 µM; in [1], above 50 µM; in the series with CCRF-CEM, 5.1 µM; with HCT-116, 38 µM; in the series with A549 it was 17 µM; in the series with CEM-DNR it was above 50 µM. The IC50 in the series on K562 turned out to be 28 µM; in the series on HCT 116 TP53(-/-) it was 26 µM. Further, the IC50 at 72 h in series [2] and in [3] was above 50 µM each time.

With `C=C(C)[C@@H]1CC[C@]2(C(=O)O)CC[C@]3(C)[C@H](CC[C@@H]4[C@@]5(C)Cc6c(C(F)(F)F)cc7c(c6C(C)(C)[C@@H]5CC[C@]43C)C(=O)N(c3ccccc3)C7=O)[C@@H]12`, the IC50 (with U2OS; in series [1]; in the series with CCRF-CEM; in the series on HCT-116; with A549; in the series on CEM-DNR) was above 50 µM in each case. In addition, the IC50 with K562 and in the series on HCT 116 TP53(-/-) was above 50 µM in each case. Also, the IC50 at 72 h in series [2] and in [3] was above 50 µM in each case.

Take `C[C@H]1[C@H](C)CC[C@]2(C(=O)O)CC[C@]3(C)C(=CC[C@@H]4[C@@]5(C)CC(C(=O)C(F)(F)F)C(=O)C(C)(C)[C@@H]5CC[C@]43C)[C@H]12` (some centres undefined): the IC50 was above 50 µM with U2OS; 8.3 µM with CCRF-CEM; 35 µM with HCT-116; 23 µM in the series on A549; 23 µM with K562; 43 µM in the series on HCT 116 TP53(-/-). Moreover, the IC50 at 72 h in [2] and in [3] was above 50 µM throughout.

`CC(C)[C@@H]1CC[C@]2(C(=O)O)CC[C@]3(C)[C@H](CC[C@@H]4[C@@]5(C)CC(C(=O)C(F)(F)F)C(=O)C(C)(C)[C@@H]5CC[C@]43C)[C@@H]12` (some centres undefined): the IC50 stood at 25 µM in the series with U2OS; 8.6 µM with CCRF-CEM; 23 µM in the series on HCT-116; 11 µM in the series on A549; 29 µM with K562; 26 µM in the series with HCT 116 TP53(-/-). Further, the IC50 at 72 h in [2] worked out at 46 µM; in series [3], 43 µM.

The IC50 is the concentration that gives 50% inhibition.

The values above are taken from ChEMBL document CHEMBL5512642, “Novel triterpenoid pyrones, phthalimides and phthalates are selectively cytotoxic in CCRF-CEM cancer cells - Synthesis, potency, and mitochondrial mechanism of action” (Eur J Med Chem, 2024).
